“And” between values parts separate entries of the source, which are not always exact repeats. Equal values may be shown once.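 Protocol summary: plate cells (96-well), add compound at 5 concentrations, incubate 48 h, interpolate endpoints linearly. At the GI50, growth is halved. TGI denotes the concentration required for complete inhibition of growth.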

The first test concerns HOP-18 NSCLC. Put plainly: NCI anticancer screen, dose series, 48 h.
With `COc1ccccc1N1C(=O)C2c3[nH]c4ccccc4c3C3CCC(C(C)(C)C)CC3C2C1=O` (configuration not stated), the TGI was more than 100 µM.
On the same count and under the same terms, in the case of `O=C(O)CCC(NC(=O)c1ccc(Nc2nc3ccccc3nc2-c2cccs2)cc1)C(=O)O` (configuration not stated) it was more than 100 µM.
The same measure, in the same setting: in the case of `COc1cc2ccnc([C@@H](OC(=O)c3ccccc3)c3ccc(OC)c(OC)c3OC)c2cc1OC` it was more than 100 µM.
Regarding `O=C(Nc1ccccc1)c1c(O)[nH]c(=S)[nH]c1=O`, the GI50 was 17.3 µM; the TGI was 118 µM and 184 µM.
In turn, `CCn1c(C)nn2c(=O)c3ccccc3nc2c1=O` gave a TGI of more than 100 µM.
On the same count and under the same terms, in the case of `COC(=O)/C(C#N)=C1\NC(=O)c2ccccc21` it was more than 100 µM; in that of `O=C(O)CCNCCCNCCC(=O)O`, more than 100 µM.
With `CC(=O)[CH-]C(=O)c1ccccc1.CC(=O)[CH-]C(=O)c1ccccc1.CN(C)c1ccc([O-])cc1.CN(C)c1ccc([O-])cc1.Cl.[Ti+4]`, the GI50 is 23.1 µM and the TGI was more than 31.6 µM.
`NC1=NCCC1(c1ccccc1)c1ccccn1` (configuration not stated) registered a TGI of more than 100 µM.
`O=C1/C(=C/c2ccc(O)c(O)c2)CCC/C1=C\c1ccc(O)c(O)c1` returned a TGI of 10.4 µM.
Still for that read-out and setting: in the case of `CCCCCCCCCCCC(=O)OCCOCCOCCOCCOCCOCc1ccccc1` it was more than 100 µM.
Consider `CCCCCCCCCCCCCC(=O)OC(/C=C/C(C)C)C(O)C(O)C(OC)C(=O)NC1CCCCN(C)C1=O` (configuration not stated), for which the GI50 was 6.44 µM; the TGI is 9.84 µM and > 49 µM.
On to `CCOC(=O)CCC1(C(=O)OCC)CCCCC1=O` (configuration not stated), for which the TGI is more than 100 µM.
In the case of `COC(=O)c1ccccc1NC(=O)C(=O)Cc1nc2c3c(ccc2[nH]c1=O)C(=O)c1ccccc1C3=O`, the TGI was more than 100 µM.
On the same count and under the same terms, in the case of `CCCC1C(=O)CCc2c(OC)ccc(OC)c21` (configuration not stated) it was more than 100 µM; in that of `NC(=O)NO.O.O.O.O.O.O.O.O.O.O.O.[Ge].[Ge].[Ge].[Ge].[Ge].[O]=[Ge].[O]=[Ge].[O]=[Ge].[O]=[Ge].[O]=[Ge][OH]`, more than 100 µM.
Still for that read-out and setting: the same measure for `COc1cc2cc(OC)c3cc4c(cc3c2c(OC)c1OC)OCO4`: more than 100 µM.
In the case of `CCC[CH2][Sn]([CH2]CCC)([S]c1cccc2cccnc12)[S]c1cccc2cccnc12`, the GI50 is 0.264 µM and the TGI worked out at 0.605 µM.
Turning to `COC(=O)C1(C(C)C)CCc2c(OC)ccc(OC)c2C1=O` (configuration not stated), the TGI is more than 100 µM.

The next test has as its system M19-MEL melanoma. Put plainly: NCI anticancer screen, dose series, 48 h.
Compound `Cc1cnc(NCCCN(C)C)c2c1[nH]c1ccc3cc(O)ccc3c12` displayed a TGI of 1.25 µM.
Still for that read-out and setting: the same measure for `Cc1nc2c(ccc3ncccc32)[nH]1`: more than 100 µM; for `C1=C2/CC[C@H](Sc3ccccc3)C2C2(CCCCC/1)OCCO2` (some centres not stated): 33.5 µM; for `O=C(CCc1nc(=S)[nH][nH]1)Nc1cc(Cl)c(Cl)cc1Cl`: more than 100 µM.
Same read-out and setting: the same measure for `CN(C)C(=S)N=C(Nc1ccccc1)Nc1ccccc1`: more than 100 µM; for `Nc1ccccc1S(=O)(=O)N(CC(=O)O)c1ccccc1`: more than 100 µM.
`CC1(C)C(=O)/C=C\C(=O)C(C)(C)C2=CC=C(O2)C(C)(C)C(=O)/C=C\C(=O)C(C)(C)C2=CC=C1O2` registered a TGI of more than 100 µM.
The same measure, in the same setting: in the case of `COc1ccccc1N1C(=O)C2c3[nH]c4ccccc4c3C3CCC(C(C)(C)C)CC3C2C1=O` (configuration not stated) it was more than 100 µM.
On the same count and under the same terms, in the case of `Cc1cc(NS(=O)(=O)c2ccc(Nc3c4ccccc4nc4c(C(=O)N5CCN(CCOS(C)(=O)=O)CC5)cccc34)cc2)no1` it was more than 100 µM.
Same read-out and setting: the same measure for `O=C(O)CCC(NC(=O)c1ccc(Nc2nc3ccccc3nc2-c2cccs2)cc1)C(=O)O` (configuration not stated): more than 100 µM.
`COc1cc2ccnc([C@@H](OC(=O)c3ccccc3)c3ccc(OC)c(OC)c3OC)c2cc1OC` yielded a TGI of more than 100 µM.
`O=C(Nc1ccccc1)c1c(O)[nH]c(=S)[nH]c1=O` came in with a TGI of 118 µM.
Same read-out and setting: the same measure for `CCn1c(C)nn2c(=O)c3ccccc3nc2c1=O`: more than 100 µM; for `COC(=O)/C(C#N)=C1\NC(=O)c2ccccc21`: more than 100 µM.
On the same count and under the same terms, in the case of `O=C(O)CCNCCCNCCC(=O)O` it was more than 100 µM.
`CC(=O)[CH-]C(=O)c1ccccc1.CC(=O)[CH-]C(=O)c1ccccc1.CN(C)c1ccc([O-])cc1.CN(C)c1ccc([O-])cc1.Cl.[Ti+4]`: the GI50 was 15.1 µM and the TGI turned out to be 26.4 µM.
In turn, `NC1=NCCC1(c1ccccc1)c1ccccn1` (configuration not stated) displayed a TGI of more than 100 µM.
The compound `O=C1/C(=C/c2ccc(O)c(O)c2)CCC/C1=C\c1ccc(O)c(O)c1` displayed a TGI of 12.3 µM.
Same read-out and setting: the same measure for `CCCCCCCCCCCC(=O)OCCOCCOCCOCCOCCOCc1ccccc1`: more than 100 µM.
As to `CCCCCCCCCCCCCC(=O)OC(/C=C/C(C)C)C(O)C(O)C(OC)C(=O)NC1CCCCN(C)C1=O` (configuration not stated), the GI50 is more than 49 µM; the TGI was 7.5 µM and > 49 µM.
For the compound `CCOC(=O)CCC1(C(=O)OCC)CCCCC1=O` (configuration not stated), the TGI was more than 100 µM.
The same measure, in the same setting: the same measure for `COC(=O)c1ccccc1NC(=O)C(=O)Cc1nc2c3c(ccc2[nH]c1=O)C(=O)c1ccccc1C3=O`: 23.9 µM; for `CCOC(=O)C(C)(C)Oc1ccc2c(-c3ccccc3)cc(=O)oc2c1`: 98 µM.
Compound `CCCC1C(=O)CCc2c(OC)ccc(OC)c21` (configuration not stated) returned a TGI of more than 100 µM.
`NC(=O)NO.O.O.O.O.O.O.O.O.O.O.O.[Ge].[Ge].[Ge].[Ge].[Ge].[O]=[Ge].[O]=[Ge].[O]=[Ge].[O]=[Ge].[O]=[Ge][OH]`: the TGI is more than 100 µM.
Compound `O=C(Nc1nc2ccc([N+](=O)[O-])cc2s1)C(=O)C(C1OC(=O)c2ccccc21)[N+](=O)[O-]` (configuration not stated) came in with a TGI of more than 100 µM.
The same measure, in the same setting: the same measure for `COc1cc2cc(OC)c3cc4c(cc3c2c(OC)c1OC)OCO4`: 48.8 µM.
On to `CCC[CH2][Sn]([CH2]CCC)([S]c1cccc2cccnc12)[S]c1cccc2cccnc12`, for which the GI50 was 0.216 µM and the TGI was determined as 0.587 µM.
For `COC(=O)C1(C(C)C)CCc2c(OC)ccc(OC)c2C1=O` (configuration not stated), the TGI is more than 100 µM.

The next test deals with SN12K1 renal. Put plainly: NCI anticancer screen, dose series, 48 h.
Consider `O=C(Nc1ccccc1)c1c(O)[nH]c(=S)[nH]c1=O`, for which the GI50 is 25.2 µM; the TGI is 51.8 µM and 75.1 µM.

Values taken from PubChem BioAssay (NCI).
